Data from patent US12532884B2, “Fungicidal compositions” (SYNGENTA CROP PROTECTION AG, priority 2020, dated 2026).

Tests used:
[1] = system: Glomerella lagenarium syn. Colletotrichum lagenarium; assay: Example C4: mixtures against Glomerella lagenarium syn. Colletotrichum lagenarium (anthracnose), liquid culture; type: cell-based; conditions: single component; for inhibition at 0.3 ppm / inhibition at 0.1 ppm: Colletotrichum orbiculare
Excerpt: (§1) Certain mixture compositions comprising a compound of formula (I) described above may show a synergistic effect. This occurs whenever the action of an active ingredient combination is greater than the sum of the actions of the individual components. The action to be expected E for a given active ingredient combination obeys the so-called COLBY formula and can be calculated as follows (COLBY, S. R. “Calculating synergistic and antagonistic responses of herbicide combination”. Weeds, Vol. 15, pages 20-22; 1967): • ppm=milligrams of active ingredient (=a.i.) per liter of spray mixture • X=% action by active ingredient A) using p ppm of active ingredient • Y=% action by active ingredient B) using q ppm of active ingredient.
(§2) According to COLBY, the expected (additive) action of active ingredients A)+B) using p+q ppm of active ingredient is:
(§3) If the action actually observed (O) is greater than the expected action (E), then the action of the combination is super-additive, i.e. there is a synergistic effect. In mathematical terms, synergism corresponds to a positive value for the difference of (O-E). In the case of purely complementary addition of activities (expected activity), said difference (O-E) is zero. A negative value of said difference (O-E) signals a loss of activity compared to the expected activity.
(§4) Mycelia fragments or conidia suspensions of a fungus prepared either freshly from liquid cultures of the fungus or from cryogenic storage, are directly mixed into nutrient broth. DMSO solutions of the test compound (max. 10 mg/mL) are diluted with 0.025% Tween20 by a factor of 50 and 10 μl of this solution is pipetted into a microtiter plate (96-well format). The nutrient broth containing the fungal spores/mycelia fragments is then added to give an end concentration of the tested compound. The test plates are incubated in the dark at 24° C. and 96% relative humidity. The inhibition of fungal growth is determined photometrically after 2 to 7 days, depending on the pathosystem, and percent antifungal activity relative to the untreated check is calculated.
(§5) Conidia of the fungus from cryogenic storage were directly mixed into nutrient broth (PDB potato dextrose broth). A DMSO solution of the test compounds was placed into a microtiter plate (96-well format) and the nutrient broth containing the fungal spores was added to it.
The following mixture compositions at the reported concentration (in ppm) in tables C4-3 and C4-4 gave the following disease control in this test (Glomerella lagenarium syn. Colletotrichum lagenarium). Fungicidal activity was evaluated on a 100-0 scale (100=no disease growth; 0=well completely covered by mycelium).

[2] = system: Puccinia recondita (Brown rust); assay: Example B: comparative biological activity against Puccinia recondita (brown rust), curative, wheat leaf segments; type: in vivo; conditions: 8 dpi
Method: Method; Wheat leaf segments are placed on agar in multiwell plates (24-well format). The leaf segments are inoculated with a spore suspension of the fungus and sprayed with test solutions 1 day after inoculation. After appropriate incubation the activity of a compound is assessed 8 dpi (days after inoculation) as curative fungicidal activity.
The data are presented as the percentage of disease control of each compound for the biological tests and testing rates described below in table B1.

[3] = system: Septoria tritici; assay: Example C2: mixtures against Septoria tritici (leaf blotch), liquid culture; type: cell-based; conditions: single component; for inhibition at 0.3 ppm: read-out: Activity (%)
Excerpt: as §1, §2, §3, §4, §5
The following mixture compositions at the reported concentration (in ppm) in tables C2-3 to C2-5 gave the following disease control in this test Septoria tritici (leaf blotch). Fungicidal activity was evaluated on a 100-0 scale (100=no disease growth; 0=well completely covered by mycelium).

[4] = system: Corynespora cassiicola; assay: Example C5: mixtures against Corynespora cassiicola (target leaf spot), liquid culture; type: cell-based; conditions: single component
Excerpt: as §1, §2, §3, §4
as §5, with “it. The test plates were incubated at 24 C and the inhibition of growth was determined photometrically after 3-4 days at 620 nm.” for “it.”
(§6) The following mixture compositions at the reported concentration (in ppm) in tables C4-3 and C4-4 gave the following disease control in this test (Corynespora cassiicola). Fungicidal activity was evaluated on a 100-0 scale (100=no disease growth; 0=well completely covered by mycelium).

[5] = system: Septoria glycines; assay: Example C3: mixtures against Septoria glycines (brown spot), liquid culture; type: cell-based; conditions: single component; for inhibition at 0.1 ppm / inhibition at 0.3 ppm: read-out: Activity (%)
Excerpt: This occurs whenever the action of an active ingredient combination is greater than the sum of the actions of the individual components. The action to be expected E for a given active ingredient combination obeys the so-called COLBY formula and can be calculated as follows (COLBY, S. R. “Calculating synergistic and antagonistic responses of herbicide combination”. Weeds, Vol. 15, pages 20-22; 1967): • ppm=milligrams of active ingredient (=a.i.) per liter of spray mixture • X=% action by active ingredient A) using p ppm of active ingredient • Y=% action by active ingredient B) using q ppm of active ingredient.
as §2, §3
as §4, with “The nutrient broth containing the fungal spores/mycelia fragments is then added to give an end concentration of the tested compound.” left out
as §5, with “fungus harvested” for “fungus”, “a fresh culture grown on artificial media,” for “cryogenic storage”
Fungicidal activity was evaluated on a 100-0 scale (100=no disease growth; 0=well completely covered by mycelium).

[6] = system: Mycosphaerella arachidis syn. Cercospora arachidicola; assay: Example C1: mixtures against Mycosphaerella arachidis syn. Cercospora arachidicola (brown leaf spot), liquid culture; type: cell-based; conditions: single component, 100-0 scale (100=no disease growth)
Excerpt: as §1, §2, §3, §4, §5
as §6, with “C1-3” for “C4-3”, “C1-4” for “C4-4”, “Mycosphaerella arachidis syn. Cercospora arachidicola (Brown leaf spot of peanut).” for “(Corynespora cassiicola).”

[7] = system: Phakopsora pachyrhizi; assay: Example D: preventative activity against Phakopsora pachyrhizi on soybean (whole plants sprayed, leaf disks inoculated); type: in vivo; conditions: applied alone; for inhibition at 450 g/ha / inhibition at 900 g/ha: Phakopsora pachyrhizi, foliar, read-out: Observed Activity (% of untreated)
Excerpt: as §1, §2, §3
Whole soybean plants are treated with the recited active ingredients 4 weeks after planting. 1 day after spraying leaf disks are cut from the first trifoliate leaf. Five repetitions at each rate are conducted. The leaf disks are inoculated with Phakopsora pachyrhizi (Asian soybean rust) one day after treatment. Evaluation of the leaf disks is conducted 11 to 14 days after inoculation and the activity is derived from the relation of the treated vs untreated, infested check. (100=no disease, no damage to the leaf, 0=high infestation, leaf damaged heavily). The rates of the active ingredients used are given in the tables as g active ingredient (a.i.)/ha.

[8] = 0.1 ppm, 100-0 scale (100=no disease growth)
[9] = 0.3 ppm, 100-0 scale (100=no disease growth)
[10] = Zymoseptoria tritici, 0.3 ppm, 100-0 scale
[11] = Septoria glycines, 0.1 ppm, 100-0 scale (100=no disease growth)
[12] = Septoria glycines, 0.3 ppm, 100-0 scale (100=no disease growth)

Compound: COc1ccnc(C(=O)N[C@H]2COC(=O)[C@H](Cc3ccccc3)[C@@H](OC(=O)C(C)C)[C@H](C)OC2=O)c1OCOC(=O)C(C)C [fenpicoxamid]
- Activity (%) ([1]; 0.1 ppm): 20%
- Activity (%) ([1]; 0.3 ppm): 70%

Compound: CO/C=C(\Oc1cc(C#CC2CCCCC2)ccc1C)C(=O)OC [Reference Compound Z-1, reference compound]
- control (%) ([2]; 20 ppm): 0%
- control (%) ([2]; 60 ppm): 0%
- control (%) ([2]; 200 ppm): 0%

Compound: CC(O)(Cn1cncn1)c1ccc(Oc2ccc(Br)cc2)nc1C(F)(F)F (stereo not drawn) [2-[6-(4-bromophenoxy)-2-(trifluoromethyl)-3-pyridyl]-1-(1,2,4-triazol-1-yl)propan-2-ol]
- inhibition at 0.3 ppm ([1]; 0.3 ppm): 0%

Compound: OC(Cc1ccccc1Cl)(Cn1nc[nH]c1=S)C1(Cl)CC1 (stereo not drawn) [prothioconazole]
- inhibition at 0.1 ppm ([1]; 0.1 ppm): 20%
- inhibition at 0.3 ppm ([1]; 0.3 ppm): 70%

Compound: O=C(Nc1ccccc1F)c1ccc(-c2noc(C(F)(F)F)n2)cc1 [N-(2-fluorophenyl)-4-[5-(trifluoromethyl)-1,2,4-oxadiazol-3-yl]benzamide]
- inhibition at 10 ppm ([3]; Zymoseptoria tritici, 10 ppm, 100-0 scale): 0%
- inhibition at 20 ppm ([3]; Zymoseptoria tritici, 20 ppm, 100-0 scale): 0%
- inhibition at 10 ppm ([4]; Corynespora cassiicola, 10 ppm): 0%
- inhibition at 20 ppm ([4]; Corynespora cassiicola, 20 ppm): 0%

Compound: Cn1cc(C(=O)Nc2cccc3c2[C@@H]2CC[C@H]3C2=C(Cl)Cl)c(C(F)F)n1 (racemic) [benzovindiflupyr]
- Activity (%) [3, 8]: 50%
- Activity (%) ([3]; 0.3 ppm, 100-0 scale): 70%
- Activity (%) ([5]; 0.1 ppm): 70%
- Activity (%) [5, 8]: 70%
- Activity (%) ([1]; 0.1 ppm): 50%

Compound: COc1ccnc(C(=O)N[C@@H](C)C(=O)O[C@@H](C)C(c2ccc(F)cc2)c2ccc(F)cc2)c1OC(C)=O [Florylpicoxamid, reference compound]
- Activity (%) ([6]; 0.01 ppm): 50%
- Activity (%) ([6]; 0.02 ppm): 90%
- Activity (%) ([3]; 0.01 ppm, 100-0 scale): 70%
- Activity (%) ([3]; 0.02 ppm, 100-0 scale): 90%
- Activity (%) ([5]; 0.01 ppm): 0%
- Activity (%) ([5]; 0.02 ppm): 0%
- Activity (%) ([1]; 0.1 ppm): 20%
- Activity (%) ([4]; 0.02 ppm): 0%

Compound: mancozeb [reference compound]
- Activity (%) ([6]; 0.1 ppm): 0%
- Activity (%) ([6]; 0.3 ppm): 0%
- Activity (%) [5, 8]: 0%
- Activity (%) [5, 9]: 0%
- Activity (%) ([1]; 0.1 ppm): 0%
- Activity (%) ([1]; 0.3 ppm): 20%
- Observed Activity (% of untreated) ([7]; 225 g/ha): 27%
- Observed Activity (% of untreated) ([7]; 450 g/ha): 39%

Compound: Cc1nc2c(F)c(F)ccc2cc1Oc1cccc(F)c1C(C)(C)O [ipflufenoquin, reference compound]
- Activity (%) ([6]; 0.3 ppm): 0%
- Activity (%) [3, 8]: 20%
- Activity (%) ([3]; 0.3 ppm, 100-0 scale): 20%
- Activity (%) ([5]; 0.1 ppm): 0%
- Activity (%) [5, 8]: 0%
- Activity (%) ([5]; 0.3 ppm): 20%
- Activity (%) [5, 9]: 20%
- Activity (%) ([1]; 0.1 ppm): 50%

Compound: N#Cc1c(Cl)c(Cl)c(Cl)c(C#N)c1Cl [chlorothalonil, reference compound]
- inhibition at 0.1 ppm ([6]; Mycosphaerella arachidis, 0.1 ppm): 20%
- inhibition at 0.1 ppm ([3]; Zymoseptoria tritici, 0.1 ppm, 100-0 scale (100=no disease growth)): 20%
- inhibition at 0.3 ppm [3, 10]: 50%
- inhibition at 0.1 ppm [5, 11]: 0%
- inhibition at 0.3 ppm [5, 12]: 20%
- inhibition at 450 g/ha ([7]; 450 g/ha): 8%
- inhibition at 900 g/ha [7]: 7%

Compound: CCC(=O)Oc1c(OC)ccnc1C(=O)N[C@@H](C)C(=O)O[C@@H](C)[C@@H](C)c1ccccc1C [[(1S,2S)-1-methyl-2-(o-tolyl)propyl] (2S)-2-[(4-methoxy-3-propanoyloxy-pyridine-2-carbonyl)amino]propanoate, reference compound]
- inhibition at 0.03 ppm ([6]; Mycosphaerella arachidis, 0.03 ppm): 70%
- inhibition at 0.03 ppm ([3]; Zymoseptoria tritici, 0.03 ppm, 100-0 scale): 50%
- inhibition at 0.06 ppm ([3]; Zymoseptoria tritici, 0.06 ppm, 100-0 scale): 70%
- inhibition at 0.03 ppm ([5]; Septoria glycines, 0.03 ppm): 0%
- inhibition at 0.06 ppm ([5]; Septoria glycines, 0.06 ppm): 0%
- inhibition at 0.03 ppm ([4]; Corynespora cassiicola, 0.03 ppm): 0%
- inhibition at 0.06 ppm ([4]; Corynespora cassiicola, 0.06 ppm): 0%

Compound: CC(O)(Cn1cncn1)c1ccc(Oc2ccc(Cl)cc2)cc1C(F)(F)F (stereo not drawn) [mefentrifluconazole]
- Activity (%) ([1]; 0.3 ppm): 0%

Compound: CO/C=C(\Oc1cccc(C(C)(C)C)c1)C(=O)OC [Reference Compound Z-2, reference compound]
- control (%) ([2]; 20 ppm): 0%
- control (%) ([2]; 60 ppm): 0%
- control (%) ([2]; 200 ppm): 0%

Compound: O=C1c2ccccc2C(=O)N1SC(Cl)(Cl)Cl [folpet, reference compound]
- inhibition at 0.3 ppm ([6]; Mycosphaerella arachidis, 0.3 ppm): 20%
- inhibition at 0.3 ppm [3, 10]: 20%
- inhibition at 0.1 ppm [5, 11]: 0%
- inhibition at 0.3 ppm [5, 12]: 0%
- inhibition at 0.1 ppm ([1]; 0.1 ppm): 20%
- inhibition at 0.3 ppm ([1]; 0.3 ppm): 70%
- inhibition at 450 g/ha ([7]; 450 g/ha): 4%
- inhibition at 900 g/ha [7]: 13%

Compound: Cc1ccc(C(=O)OCc2ccc(Oc3ccccc3)cc2)c(N)n1 [aminopyrifen]
- Activity (%) ([1]; 0.1 ppm): 20%
- Activity (%) ([1]; 0.3 ppm): 50%
